We go through 12 compounds from PubChem BioAssay AID220 (DTP/NCI, 2004).

This assay relates to CD8F1 mice, subcutaneous mammary adenocarcinoma, T/C%. Nature of the assay: NCI In Vivo Anticancer Drug Screen. Data for tumor model Mammary Adenocarcinoma CD8F1 (subcutaneous) in CD8F1. The following applies: higher = larger tumour. Summed up:
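Mice carrying transplanted tumors received test compound, and survival or tumor size was recorded. Each value is the treated-group measurement divided by the corresponding measurement in vehicle-dosed controls.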

The mark [1] stands for this setting: endpoint: median tumor weight (est.), dose: 12.5 mg/kg/injection, schedule: Q07DX005 (ip), vehicle: saline with Tween-80.
Setting [2] is: endpoint: median tumor weight (est.), dose: 100.0 mg/kg/injection, schedule: Q07DX005 (ip), vehicle: saline with Tween-80.
Where [3] appears, read: endpoint: median tumor weight change, dose: 125.0 mg/kg/injection, schedule: Q01DX001 (ip), vehicle: saline with Tween-80.
[4] abbreviates: endpoint: median tumor weight (est.), dose: 6.25 mg/kg/injection, schedule: Q07DX005 (ip), vehicle: Klucel (hydroxypropylcellulose) (HPC).
Where [5] appears, read: endpoint: median tumor weight (est.), dose: 12.5 mg/kg/injection, schedule: Q07DX005 (ip), vehicle: Klucel (hydroxypropylcellulose) (HPC).
Where [6] appears, read: endpoint: median tumor weight (est.), dose: 100.0 mg/kg/injection, schedule: Q07DX005 (ip), vehicle: Klucel (hydroxypropylcellulose) (HPC).
The mark [7] stands for this setting: endpoint: median tumor weight (est.), dose: 200.0 mg/kg/injection, schedule: Q07DX005 (ip), vehicle: Klucel (hydroxypropylcellulose) (HPC).

Several values for one entry are separate records, joined by “and”; a condition that tells them apart may be missing. Equal entries are not always repeated. Records with an inconclusive call do not appear.

For the compound `COc1cc(NCc2ccc3nc(N)nc(N)c3c2C)cc(OC)c1OC`, the T/C was 82 % of control (endpoint: median tumor weight (est.), dose: 1.88 mg/kg/injection, schedule: Q07DX005 (ip), vehicle: sodium bicarbonate); 63 % of control and 82 % of control (endpoint: median tumor weight (est.), dose: 3.75 mg/kg/injection, schedule: Q07DX005 (ip), vehicle: sodium bicarbonate); 114 % of control (endpoint: median tumor weight (est.), dose: 7.5 mg/kg/injection, schedule: Q07DX005 (ip), vehicle: sodium bicarbonate); 100 % of control (endpoint: median tumor weight (est.), dose: 35.0 mg/kg/injection, schedule: Q04DX007 (ip), vehicle: water); 87 % of control (endpoint: median tumor weight (est.), dose: 35.0 mg/kg/injection, schedule: Q07DX005 (ip), vehicle: water); 59 % of control (endpoint: median tumor weight (est.), dose: 41.5 mg/kg/injection, schedule: Q04DX007 (ip), vehicle: water). For the same compound, the T/C reads like this: (endpoint: median tumor weight (est.), dose: 44.0 mg/kg/injection, schedule: Q07DX005 (ip), vehicle: water) 44 % of control; (endpoint: median tumor weight (est.), dose: 46.0 mg/kg/injection, schedule: Q07DX005 (ip), vehicle: water) 26 % of control; (endpoint: median tumor weight (est.), dose: 47.4 mg/kg/injection, schedule: Q04DX007 (ip), vehicle: water) 29 % of control; (endpoint: median tumor weight (est.), dose: 53.0 mg/kg/injection, schedule: Q04DX007 (ip), vehicle: water) 66 % of control; (endpoint: median tumor weight (est.), dose: 53.0 mg/kg/injection, schedule: Q07DX005 (ip), vehicle: saline) 5 % of control; (endpoint: median tumor weight (est.), dose: 53.0 mg/kg/injection, schedule: Q07DX005 (ip), vehicle: suspension in saline) 67 % of control. Further, the T/C (endpoint: median tumor weight (est.), dose: 62.2 mg/kg/injection, schedule: Q04DX007 (ip), vehicle: water) is 29 % of control; the T/C (endpoint: median tumor weight (est.), dose: 66.0 mg/kg/injection, schedule: Q07DX005 (ip), vehicle: water) is 111 % of control; the T/C (endpoint: median tumor weight (est.), dose: 70.0 mg/kg/injection, schedule: Q07DX005 (ip), vehicle: water) was 44 % of control; the T/C (endpoint: median tumor weight (est.), dose: 71.1 mg/kg/injection, schedule: Q04DX007 (ip), vehicle: water) is 45 % of control; the T/C (endpoint: median tumor weight (est.), dose: 80.0 mg/kg/injection, schedule: Q04DX007 (ip), vehicle: water) was 121 % of control; the T/C (endpoint: median tumor weight (est.), dose: 80.0 mg/kg/injection, schedule: Q07DX005 (ip), vehicle: suspension in saline) is 23 % of control. Also, the T/C runs as follows: (endpoint: median tumor weight (est.), dose: 99.0 mg/kg/injection, schedule: Q07DX005 (ip), vehicle: water) 24 % of control; (endpoint: median tumor weight (est.), dose: 105.0 mg/kg/injection, schedule: Q07DX005 (ip), vehicle: water) 41 % of control; (endpoint: median tumor weight (est.), dose: 120.0 mg/kg/injection, schedule: Q04DX007 (ip), vehicle: water) 8 % of control; (endpoint: median tumor weight (est.), dose: 120.0 mg/kg/injection, schedule: Q07DX005 (ip), vehicle: sodium bicarbonate) 37 % of control.

With `Nc1nc(N)c2c(Cl)c(CNc3ccc(Cl)c(Cl)c3)ccc2n1`, the T/C was 55 % of control (endpoint: median tumor weight (est.), dose: 6.25 mg/kg/injection, schedule: Q07DX005 (ip), vehicle: saline with Tween-80); 78 % of control under setting [1]; 82 % of control (endpoint: median tumor weight (est.), dose: 25.0 mg/kg/injection, schedule: Q07DX005 (ip), vehicle: saline with Tween-80); 8 % of control (endpoint: median tumor weight (est.), dose: 50.0 mg/kg/injection, schedule: Q07DX005 (ip), vehicle: saline with Tween-80); 27 % of control under setting [2].

For `Cc1nc(N)nc(N)c1-c1ccc(Cl)c(Cl)c1`, the T/C reads like this: (endpoint: mean tumor weight (est.), dose: 10.0 mg/kg/injection, schedule: Q07DX003 (ip), vehicle: saline with Tween-80) 120 % of control; (endpoint: median tumor weight change, dose: 12.5 mg/kg/injection, schedule: Q01DX001 (ip), vehicle: saline with Tween-80) 20 % of control; (endpoint: median tumor weight change, dose: 12.5 mg/kg/injection, schedule: Q01DX001 (ip), vehicle: suspension in saline) 79 % of control; (endpoint: median tumor weight change, dose: 25.0 mg/kg/injection, schedule: Q01DX001 (ip), vehicle: saline with Tween-80) 50 % of control; (endpoint: median tumor weight change, dose: 25.0 mg/kg/injection, schedule: Q01DX001 (ip), vehicle: suspension in saline) 38 % of control; (endpoint: median tumor weight change, dose: 50.0 mg/kg/injection, schedule: Q01DX001 (ip), vehicle: saline with Tween-80) 8 % of control. In addition, the T/C (endpoint: median tumor weight change, dose: 50.0 mg/kg/injection, schedule: Q01DX001 (ip), vehicle: suspension in saline) is 12 % of control.

In the case of `CC1=NN(c2cccc(S(=O)(=O)O)c2)C(=O)C1N=Nc1cc(Cl)cc(S(=O)(=O)O)c1O.CC1=NN(c2cccc(S(=O)(=O)O)c2)C(=O)C1N=Nc1cc(Cl)cc(S(=O)(=O)O)c1O.[Cr]` (centres undefined), the T/C (endpoint: median tumor weight change, dose: 125.0 mg/kg/injection, schedule: Q01DX001 (ip), vehicle: saline) is 245 % of control and the T/C (endpoint: median tumor weight change, dose: 250.0 mg/kg/injection, schedule: Q01DX001 (ip), vehicle: saline) was 184 % of control.

Consider `CCc1ccc(C2=C(O)C(=O)C(c3ccc(CC)cc3)=C(O)C2=O)cc1`, for which the T/C (endpoint: median tumor weight change, dose: 16.0 mg/kg/injection, schedule: Q01DX001 (ip), vehicle: saline with Tween-80) is 88 % of control; the T/C (endpoint: median tumor weight change, dose: 31.0 mg/kg/injection, schedule: Q01DX001 (ip), vehicle: saline with Tween-80) was 107 % of control; the T/C (endpoint: median tumor weight change, dose: 62.0 mg/kg/injection, schedule: Q01DX001 (ip), vehicle: saline with Tween-80) was 92 % of control; the T/C under setting [3] was 61 % of control.

For `CC(=O)OCC1OC(OC(C)=O)C(NC(=O)N(CCCl)N=O)C(OC(C)=O)C1OC(C)=O` (centres undefined), the T/C is, setting by setting: (endpoint: median tumor weight (est.), dose: 1.5 mg/kg/injection, schedule: Q07DX005 (ip), vehicle: Klucel (hydroxypropylcellulose) (HPC)) 61 % of control; (endpoint: median tumor weight (est.), dose: 3.0 mg/kg/injection, schedule: Q07DX005 (ip), vehicle: Klucel (hydroxypropylcellulose) (HPC)) 41 % of control and 63 % of control and 66 % of control.

For `O=[N+]([O-])/C=C\c1ccc2c(c1)OCO2`, the T/C by setting is: under setting [4], 102 % of control; under setting [5], 59 % of control; (endpoint: median tumor weight (est.), dose: 25.0 mg/kg/injection, schedule: Q07DX005 (ip), vehicle: Klucel (hydroxypropylcellulose) (HPC)) 86 % of control; (endpoint: median tumor weight (est.), dose: 50.0 mg/kg/injection, schedule: Q07DX005 (ip), vehicle: Klucel (hydroxypropylcellulose) (HPC)) 60 % of control; under setting [6], 55 % of control; under setting [7], 83 % of control.

Turning to `O=c1[nH]c(=O)c2nc(-c3cccnc3)cnc2[nH]1`, the T/C reads like this: (endpoint: median tumor weight (est.), dose: 12.5 mg/kg/injection, schedule: Q07DX005 (ip), vehicle: saline) 122 % of control; (endpoint: median tumor weight (est.), dose: 25.0 mg/kg/injection, schedule: Q07DX005 (ip), vehicle: saline) 93 % of control; (endpoint: median tumor weight (est.), dose: 50.0 mg/kg/injection, schedule: Q07DX005 (ip), vehicle: saline) 58 % of control; (endpoint: median tumor weight (est.), dose: 100.0 mg/kg/injection, schedule: Q07DX005 (ip), vehicle: saline) 93 % of control; (endpoint: median tumor weight (est.), dose: 200.0 mg/kg/injection, schedule: Q07DX005 (ip), vehicle: saline) 90 % of control; (endpoint: median tumor weight (est.), dose: 400.0 mg/kg/injection, schedule: Q07DX005 (ip), vehicle: saline) 62 % of control.

`Cc1ccc(S(=O)(=O)NC(=O)C2C(=O)CC3(CCCCC3)CC2=O)cc1`: the T/C is 93 % of control (endpoint: median tumor weight change, dose: 31.25 mg/kg/injection, schedule: Q01DX001 (ip), vehicle: Klucel (hydroxypropylcellulose) (HPC)); 101 % of control (endpoint: median tumor weight change, dose: 62.5 mg/kg/injection, schedule: Q01DX001 (ip), vehicle: Klucel (hydroxypropylcellulose) (HPC)); 122 % of control (endpoint: median tumor weight change, dose: 125.0 mg/kg/injection, schedule: Q01DX001 (ip), vehicle: Klucel (hydroxypropylcellulose) (HPC)).

In the case of `CC(=O)OCc1cc(=O)n(C)c2c3c4c(cc12)c(C)cc(=O)n4CO3`, the T/C was 42 % of control under setting [4]; 66 % of control and 78 % of control under setting [5]; 19 % of control and 43 % of control under setting [6]; 22 % of control and 26 % of control under setting [7].

For the compound `CCO/C=C1\SC(=S)N(c2ccccc2C)C1=O`, the T/C is 106 % of control under setting [1]; 115 % of control under setting [2]; 95 % of control (endpoint: median tumor weight (est.), dose: 200.0 mg/kg/injection, schedule: Q07DX005 (ip), vehicle: saline with Tween-80); 67 % of control (endpoint: median tumor weight (est.), dose: 400.0 mg/kg/injection, schedule: Q07DX005 (ip), vehicle: saline with Tween-80).

As to `CCCCOCN(COCCCC)C(C)Cc1ccccc1` (centres undefined), the T/C is 100 % of control (endpoint: median tumor weight change, dose: 62.5 mg/kg/injection, schedule: Q01DX001 (ip), vehicle: saline with Tween-80); 85 % of control under setting [3]; 110 % of control (endpoint: median tumor weight change, dose: 250.0 mg/kg/injection, schedule: Q01DX001 (ip), vehicle: saline with Tween-80); 80 % of control (endpoint: median tumor weight change, dose: 1000.0 mg/kg/injection, schedule: Q01DX001 (ip), vehicle: saline with Tween-80).
